This passage reports IC50 results from patent US11111242B2, “Pyrrolo[2,3-d]pyrimidinyl, pyrrolo[2,3-b]pyrazinyl and pyrrolo[2,3-d]pyridinyl acrylamides” (Pfizer Inc., priority 2013, dated 2021).

What is called IC50 is the concentration that inhibits the measured activity by half.

In one assay the test system is IL-15 induced P-STAT5 in human PBMC (total lymphocytes). The assay is described as follows: PBMC IL-15 Induced P-STAT5. The format is cell-based. To be noted: Homo sapiens, PBMC, IL-15 stimulated, read-out: PBMC IL15-pSTAT5 IC50. How it is done: PBMC IL-15 Induced P-STAT5
Frozen human PBMC (200-250 million cells/vial) was thawed at 37° C. The cells were transferred to 10 mL warm medium in a 50-mL conical tube, and centrifuged at 1,200 RPM at room temperature for 5 min. The supernatant was aspirated. […] After adding 47 ml D-PBS (37° C.) to PBMC/FBS suspension, centrifuging at 1,200 RPM at room temperature for 5 min, and aspirating the supernatant, the cells were resuspended in 20 mL warm RPMI medium. Ninety μL of cell suspension were pipetted per well in a 96-well, deep-well, V-bottom plate, and the plate was incubated at 37° C. for 30 min. […] After adding 0.8 mL staining buffer per well, the plates were centrifuged at 1,200 RPM (Beckman GS-6R or Sorvall Legend) at room temperature for 5 min, and again the supernatant was aspirated using a 8-channel or 12-channel manifold. The plate was vortexed, and 0.35 mL 90% methanol/10% H2O (−20° C.) was added per well, and the plate incubated on ice for 20 min. After again adding 0.8 mL staining buffer per well, the plates were centrifuged at 1,200 RPM (Beckman GS-6R or Sorvall Legend) at room temperature for 5 min, and again the supernatant was aspirated using a 8-channel or 12-channel manifold, and then 0.8 mL Staining buffer was added per well. After once again adding 0.8 mL staining buffer per well, the plates were centrifuged at 1,200 RPM (Beckman GS-6R or Sorvall Legend) at room temperature for 5 min, and again the supernatant was aspirated using a 8-channel or 12-channel manifold. […] Samples of 250 μL/well were transferred to a 96-well U-bottom plate, and the FACS analysis was performed gating on total lymphocytes. Samples were analyzed using a BD Calibur™ or BD FACSCanto™ flow cytometer equipped with the BD High Throughput Sampler.
As for `C=CC(=O)N(C)C1CN(c2cnc3[nH]cc(C(=O)NC(C)C)c3n2)C1` [Example 187, 2-{3-[acryloyl(methyl)amino]azetidin-1-yl}-N-(propan-2-yl)-5H-pyrrolo[2,3-b]pyrazine-7-carboxamide], the IC50 is 710 nM. The same measure, in the same setting: the figure for `C=CC(=O)N[C@H]1C[C@@H](Nc2cnc3[nH]cc(C(=O)NC(C)C)c3n2)C1` [Example 184, 2-{[cis-3-(acryloylamino)cyclobutyl]amino}-N-(propan-2-yl)-5H-pyrrolo[2,3-b]pyrazine-7-carboxamide] is 3410 nM. On to `C=CC(=O)N1CCC[C@](C)(Nc2ncnc3[nH]ccc23)C1` [Example 70, (S)-1-(3-((7H-Pyrrolo[2,3-d]pyrimidin-4-yl)amino)-3-methylpiperidin-1-yl)prop-2-en-1-one], for which the IC50 was 5530 nM. On the same count and under the same terms, with `C=CC(=O)N[C@H]1C[C@H](Nc2cnc3[nH]cc(C(=O)NC(C)C)c3n2)C1` [Example 198, 2-{[trans-3-(acryloylamino)cyclobutyl]amino}-N-(propan-2-yl)-5H-pyrrolo[2,3-b]pyrazine-7-carboxamide] the figure was 1170 nM; with `C=CC(=O)N1CC[C@H]2CCN(c3ncnc4[nH]ccc34)[C@H]2C1` (racemic) [Example 21, rac-1-((3aR,7aR)-1-(7H-Pyrrolo[2,3-d]pyrimidin-4-yl)hexahydro-1H-pyrrolo[2,3-c]pyridin-6(2H)-yl)prop-2-en-1-one], 236 nM; with `C#Cc1c[nH]c2ncnc(N3CC[C@H]4CCN(C(=O)C=C)C[C@H]43)c12` [Example 48, 1-[(3aS,7aS)-1-(5-ethynyl-7H-pyrrolo[2,3-d]pyrimidin-4-yl)octahydro-6H-pyrrolo[2,3-c]pyridin-6-yl]prop-2-en-1-one], 65.2 nM.

As to `C=CC(=O)N1CCC(Nc2cnc3[nH]cc(C(=O)NC4CCCC4(F)F)c3n2)CC1` (stereo not drawn) [Example 234, 2-[(1-acryloylpiperidin-4-yl)amino]-N-(2,2-difluorocyclopentyl)-5H-pyrrolo[2,3-b]pyrazine-7-carboxamide], the IC50 came to 65.2 nM. On the same count and under the same terms, the figure for `C=CC(=O)N1CCC[C@@H](Nc2ncnc3[nH]cc(-c4ccc(C(=O)N(C)C)cc4)c23)C1` [Example 27, 4-(4-{[(3R)-1-acryloylpiperidin-3-yl]amino}-7H-pyrrolo[2,3-d]pyrimidin-5-yl)-N,N-dimethylbenzamide] is 1870 nM.

The same assay, now with this note: IL-15 stimulated, read-out: PBMC IL15-pSTAT5 IC50.
Regarding `C=CC(=O)N1CCN(c2cnc3[nH]cc(C(=O)NC(C)C)c3n2)C2(CC2)C1` [Example 313, 2-(7-acryloyl-4,7-diazaspiro[2.5]oct-4-yl)-N-(propan-2-yl)-5H-pyrrolo[2,3-b]pyrazine-7-carboxamide], the IC50 came out at 706 nM. Still for that read-out and setting: with `C=CC(=O)N1CCC(Oc2cnc3[nH]cc(-c4cnc(OC)nc4)c3n2)CC1` [Example 219, 1-(4-{[7-(2-methoxypyrimidin-5-yl)-5H-pyrrolo[2,3-b]pyrazin-2-yl]oxy}piperidin-1-yl)prop-2-en-1-one] the figure was 987 nM; with `C=CC(=O)N1CCC(Oc2cnc3[nH]cc(-c4cncnc4)c3n2)CC1` [Example 215, 1-(4-{[7-(pyrimidin-5-yl)-5H-pyrrolo[2,3-b]pyrazin-2-yl]oxy}piperidin-1-yl)prop-2-en-1-one], 1260 nM; with `C=CC(=O)N1CCN(c2cnc3[nH]cc(C(=O)NC(C)C)c3n2)C[C@H]1C(C)C` [Example 294, 2-[(3R)-4-acryloyl-3-(propan-2-yl)piperazin-1-yl]-N-(propan-2-yl)-5H-pyrrolo[2,3-b]pyrazine-7-carboxamide], 1000 nM. Same read-out and setting: with `C=CC(=O)N1[C@H](C)CN(c2cnc3[nH]cc(C(=O)NC(C)C)c3n2)C[C@@H]1C` [Example 306, 2-[(3R,5S)-4-acryloyl-3,5-dimethylpiperazin-1-yl]-N-(propan-2-yl)-5H-pyrrolo[2,3-b]pyrazine-7-carboxamide] the figure was 1090 nM.

For the molecule `C=CC(=O)N1CCC(Nc2cnc3[nH]cc(C(=O)NCC4(O)CCCC(F)(F)C4)c3n2)CC1` (stereo not drawn) [Example 249, 2-[(1-acryloylpiperidin-4-yl)amino]-N-[(3,3-difluoro-1-hydroxycyclohexyl)methyl]-5H-pyrrolo[2,3-b]pyrazine-7-carboxamide], the IC50 stood at 2110 nM. Still for that read-out and setting: the figure for `C=CC(=O)N1CCC(Oc2cnc3[nH]cc(-c4cccc(C(=O)NC)c4)c3n2)CC1` [Example 227, 3-{2-[(1-acryloylpiperidin-4-yl)oxy]-5H-pyrrolo[2,3-b]pyrazin-7-yl}-N-methylbenzamide] is 643 nM; for `C=CC(=O)N1CCC(Oc2cnc3[nH]cc(C(=O)NC(C)(C)C)c3n2)CC1` [Example 338, 2-((1-Acryloylpiperidin-4-yl)oxy)-N-(tert-butyl)-5H-pyrrolo[2,3-b]pyrazine-7-carboxamide] it is 480 nM; for `C=CC(=O)N1CCC[C@@H](Nc2ncnc3[nH]cc(-c4cncc(F)c4)c23)C1` [Example 23, 1-[(3R)-3-{[5-(5-fluoropyridin-3-yl)-7H-pyrrolo[2,3-d]pyrimidin-4-yl]amino}piperidin-1-yl]prop-2-en-1-one] it is 188 nM. The same measure, in the same setting: with `C=CC(=O)N1CCC(Nc2cnc3[nH]cc(-c4ccc(S(C)(=O)=O)cc4)c3n2)CC1` [Example 203, 1-[4-({7-[4-(methylsulfonyl)phenyl]-5H-pyrrolo[2,3-b]pyrazin-2-yl}amino)piperidin-1-yl]prop-2-en-1-one] the figure was 1180 nM; with `C=CC(=O)N1C[C@H](Nc2ncnc3[nH]ccc23)CC[C@@H]1C` [Example 5, 1-((2S,5R)-5-((7H-pyrrolo[2,3-d]pyrimidin-4-yl)amino)-2-methylpiperidin-1-yl)prop-2-en-1-one], 51.7 nM.

For the molecule `C=CC(=O)N1CCC(Nc2cnc3[nH]cc(C(=O)NCC4(O)CCC(F)(F)CC4)c3n2)CC1` [Example 252b, 2-[(1-acryloylpiperidin-4-yl)amino]-N-[(4,4-difluoro-1-hydroxycyclohexyl)methyl]-5H-pyrrolo[2,3-b]pyrazine-7-carboxamide], the IC50 came out at 2470 nM. On to `C=CC(=O)N1CCC(Nc2cnc3[nH]cc(-c4cncc(C#N)c4)c3n2)CC1` [Example 206, 5-{2-[(1-acryloylpiperidin-4-yl)amino]-5H-pyrrolo[2,3-b]pyrazin-7-yl}pyridine-3-carbonitrile], for which the IC50 amounted to 163 nM.

Turning to `C=CC(=O)N1CCC[C@@H](Nc2ncnc3[nH]cc(CC#N)c23)C1` [Example 20, (R)-2-(4-((1-Acryloylpiperidin-3-yl)amino)-7H-pyrrolo[2,3-d]pyrimidin-5-yl)acetonitrile], the IC50 worked out at 362 nM. Same read-out and setting: the figure for `C=CC(=O)N1CC[C@@H](Nc2cnc3[nH]cc(C(=O)NC(C)C)c3n2)[C@H](F)C1` [Example 291, 2-{[(3R,4R)-1-acryloyl-3-fluoropiperidin-4-yl]amino}-N-(propan-2-yl)-5H-pyrrolo[2,3-b]pyrazine-7-carboxamide] is 168 nM; for `C=CC(=O)N1CCC(Oc2cnc3[nH]cc(-c4ccc(C)nc4)c3n2)CC1` [Example 214, 1-(4-{[7-(6-methylpyridin-3-yl)-5H-pyrrolo[2,3-b]pyrazin-2-yl]oxy}piperidin-1-yl)prop-2-en-1-one] it is 1110 nM; for `C=CC(=O)N1C[C@H](C)C[C@@H](Nc2ncnc3[nH]ccc23)C1` (racemic) [Example 65, Rac-1-((3R,5R)-3-((7H-Pyrrolo[2,3-d]pyrimidin-4-yl)amino)-5-methylpiperidin-1-yl)prop-2-en-1-one] it is 3740 nM. On the same count and under the same terms, the figure for `C=CC(=O)N1CCC[C@@H](Nc2ncnc3[nH]cc(-c4ccccc4O)c23)C1` [Example 25, 1-[(3R)-3-{[5-(2-hydroxyphenyl)-7H-pyrrolo[2,3-d]pyrimidin-4-yl]amino}piperidin-1-yl]prop-2-en-1-one] is 84 nM; for `C=CC(=O)N1CCN(c2cnc3[nH]cc(C(=O)NC(C)C)c3n2)[C@H](CC)C1` [Example 321, 2-[(2R)-4-acryloyl-2-ethylpiperazin-1-yl]-N-(propan-2-yl)-5H-pyrrolo[2,3-b]pyrazine-7-carboxamide] it is 415 nM; for `C=CC(=O)N1CC2CCC1CN2c1cnc2[nH]cc(C(=O)NC(C)C)c2n1` (stereo not drawn) [Example 308, 2-(5-acryloyl-2,5-diazabicyclo[2.2.2]oct-2-yl)-N-(propan-2-yl)-5H-pyrrolo[2,3-b]pyrazine-7-carboxamide] it is 2240 nM. On the same count and under the same terms, the figure for `C=CC(=O)N1CCC(Oc2cnc3[nH]cc(-c4ccnc(F)c4)c3n2)CC1` [Example 222, 1-(4-{[7-(2-fluoropyridin-4-yl)-5H-pyrrolo[2,3-b]pyrazin-2-yl]oxy}piperidin-1-yl)prop-2-en-1-one] is 757 nM; for `C=CC(=O)N1CCC(Nc2cnc3[nH]cc(C(=O)NCCCC#N)c3n2)CC1` [Example 242, 2-[(1-acryloylpiperidin-4-yl)amino]-N-(3-cyanopropyl)-5H-pyrrolo[2,3-b]pyrazine-7-carboxamide] it is 1100 nM.
